Experimental data from US20080044844A1 (priority 2004, published 2008).
Like-named read-outs stand apart in the source and are kept apart here.

Tests used:
[1] = test system: lacZ promoter; type: cell-based, E. coli
[2] = test system: Fiu promoter; type: cell-based, E. coli
[3] = test system: GrpE promoter; type: cell-based, E. coli
[4] = test system: E. coli luxCDABE promoter fusion library; type: cell-based
[5] = test system: GrpE promoter; type: cell-based, E. coli; remark: listed apart in the source
[6] = test system: Fiu promoter; type: cell-based, E. coli; remark: listed apart in the source
[7] = test system: MipA promoter; type: cell-based, E. coli
[8] = test system: LacAYZ promoter; type: cell-based, E. coli
[9] = test system: MipA promoter; type: cell-based, E. coli; remark: listed apart in the source
[10] = test system: (AP-1-STRE)*2; type: cell-based, Saccharomyces cerevisiae
[11] = test system: STRE; type: cell-based, Saccharomyces cerevisiae
[12] = rat, in vivo, po; cited from earlier work
[13] = test system: otsAB promoter; type: cell-based, E. coli
[14] = test system: yciD promoter; type: cell-based, E. coli
[15] = test system: nhoA promoter; type: cell-based, E. coli

In the case of `Oc1cc(Cl)c(Cl)cc1Cl` [2,4,5-Trichlorophenol], the Cmax [1] is reported as 31 mg/L, the EC200 [1] is reported as 0.8 mg/L and the RRmax [1] is reported as 16.1. The t200 [1] was 95 min, the “tmax (first value, time to reach RRmax)” value [1] was 120/120 min and the “tmax (second value, time to reach ΔLmax)” value [1] was 120/120 min. The ΔLmax [1] was 74,832 RLU, the Cmax [2] was 31 mg/L and the EC200 [2] was 1.2 mg/L. For the same compound, the RRmax [2] was 11.7, the t200 [2] was 39 min and the “tmax (first value, time to reach RRmax)” value [2] was 30/120 min. The “tmax (second value, time to reach ΔLmax)” value [2] was 30/120 min, the ΔLmax [2] was 33,697 RLU and the Cmax [3] was 31 mg/L. For the same compound, the EC200 [3] was 1.0 mg/L, the RRmax [3] was 22.1 and the t200 [3] was 21 min. The “tmax (first value, time to reach RRmax)” value [3] was 90/90 min, the “tmax (second value, time to reach ΔLmax)” value [3] was 90/90 min and the ΔLmax [3] was 54,432 RLU.
`Oc1c(Cl)cccc1Cl` [2,6-Dichlorophenol] showed a Cmax [2] of 125 mg/L, an EC200 [2] of 16.0 mg/L and an RRmax [2] of 4.4. For the same compound, the t200 [2] was 31 min, the “tmax (first value, time to reach RRmax)” value [2] was 30/120 min and the “tmax (second value, time to reach ΔLmax)” value [2] was 30/120 min. The ΔLmax [2] was 25,553 RLU, the Cmax [3] was 31 mg/L and the EC200 [3] was 1.2 mg/L. The RRmax [3] was 19.5, the t200 [3] was 29 min and the “tmax (first value, time to reach RRmax)” value [3] was 90/90 min. For the same compound, the “tmax (second value, time to reach ΔLmax)” value [3] was 90/90 min and the ΔLmax [3] was 47,877 RLU.
`Oc1ccccc1Cl` [2-Chlorophenol] gave a Cmax [2] of 500 mg/L, an EC200 [2] of 3.4 mg/L and an RRmax [2] of 5.8. The t200 [2] was 80 min, the “tmax (first value, time to reach RRmax)” value [2] was 90/120 min and the “tmax (second value, time to reach ΔLmax)” value [2] was 90/120 min. For the same compound, the ΔLmax [2] was 11,971 RLU, the Cmax [3] was 250 mg/L and the EC200 [3] was 2.8 mg/L. For the same compound, the RRmax [3] was 18.7, the t200 [3] was 32 min and the “tmax (first value, time to reach RRmax)” value [3] was 90/90 min. For the same compound, the “tmax (second value, time to reach ΔLmax)” value [3] was 90/90 min and the ΔLmax [3] was 33,345 RLU.
`COc1cc2c(c(OC)c1OC)-c1ccc(OC)c(=O)cc1[C@@H](NC(C)=O)CC2` [Colchicine] showed a Cmax [2] of 45 mg/L, an EC200 [2] of 14.3 mg/L and an RRmax [2] of 4.0. For the same compound, the t200 [2] was 85 min, the “tmax (first value, time to reach RRmax)” value [2] was 120/120 min and the “tmax (second value, time to reach ΔLmax)” value [2] was 120/120 min. The ΔLmax [2] was 1,924 RLU.
For `COP(=O)(OC)OC=C(Cl)Cl` [DDVP, Dichlorvos], the “share of library promoters with 0 < RRmax < 2” value (“share … with 0 < RRmax < 2” for short) [4] was 91.7%, the “share of library promoters with 2 < RRmax < 3” value (“share … with 2 < RRmax < 3” for short) [4] was 5.7% and the “share of library promoters with 3 < RRmax < 5” value (“share … with 3 < RRmax < 5” for short) [4] was 2.0%. The “share of library promoters with 5 < RRmax < 10” value (“share … with 5 < RRmax < 10” for short) [4] was 0.4%, the Cmax [5] was 125 mg/L and the Cmax [6] was 500 mg/L. It also gave an RRmax [6] of 5, a Cmax [3] of 125 mg/L and an EC200 [3] of 32.5 mg/L. The t200 [3] was 41 min, the “tmax (first value, time to reach RRmax)” value [3] was 132/132 min and the “tmax (second value, time to reach ΔLmax)” value [3] was 132/132 min. For the same compound, the ΔLmax [3] was 5,290 RLU.
For `CCOP(=S)(OCC)Oc1ccc([N+](=O)[O-])cc1` [Ethyl Parathion], the “share … with 0 < RRmax < 2” value [4] was 89.6%, the “share … with 2 < RRmax < 3” value [4] was 6.3% and the “share … with 3 < RRmax < 5” value [4] was 2.1%. For the same compound, the “share … with 5 < RRmax < 10” value [4] was 1.7%, the Cmax [7] was 500 mg/L and the Cmax [8] was 500 mg/L. It also gave an RRmax [8] of 8, a Cmax [1] of 125 mg/L and an EC200 [1] of 13.0 mg/L. For the same compound, the RRmax [1] was 4.7, the t200 [1] was 120 min and the “tmax (first value, time to reach RRmax)” value [1] was 132/132 min. For the same compound, the “tmax (second value, time to reach ΔLmax)” value [1] was 132/132 min, the ΔLmax [1] was 47,776 RLU and the Cmax [9] was 500 mg/L. For the same compound, the EC200 [9] was 79.0 mg/L, the t200 [9] was 60 min and the “tmax (first value, time to reach RRmax)” value [9] was 87/110 min. For the same compound, the “tmax (second value, time to reach ΔLmax)” value [9] was 87/110 min, the ΔLmax [9] was 196,600 RLU and the fold higher response [10] was 4-5 fold. For the same compound, the “time within which a response can be seen” value [10] was 5 to 10 min, the fold higher response [11] was 4-5 fold and the “time within which a response can be seen” value [11] was 5 to 10 min. For the same compound, the LD50 [12] was 2 mg/kg.
`CNC(=S)[S-].[Na+]` [Metham Sodium] gave a Cmax [1] of 180 mg/L, an EC200 [1] of 20.0 mg/L and an RRmax [1] of 6.5. For the same compound, the t200 [1] was 90 min, the “tmax (first value, time to reach RRmax)” value [1] was 120/120 min and the “tmax (second value, time to reach ΔLmax)” value [1] was 120/120 min. For the same compound, the ΔLmax [1] was 30,468 RLU, the Cmax [9] was 180 mg/L and the EC200 [9] was 18.0 mg/L. The RRmax [9] was 5.9, the t200 [9] was 100 min and the “tmax (first value, time to reach RRmax)” value [9] was 120/120 min. For the same compound, the “tmax (second value, time to reach ΔLmax)” value [9] was 120/120 min and the ΔLmax [9] was 27,745 RLU.
In the case of `CNC(=O)ON=C(C)SC` [Methomyl], the “response of the library promoters to the toxicant (in words)” value (from here on “response of the library promoters”) [4] is reported as “very poor responses”, the “share … with 0 < RRmax < 2” value [4] is reported as 90.1% and the “share … with 2 < RRmax < 3” value [4] is reported as 7.1%. The “share … with 3 < RRmax < 5” value [4] was 2.0%, the “share … with 5 < RRmax < 10” value [4] was 0.7% and the “share of library promoters with 10 < RRmax” value [4] was 0.1%. The Cmax [13] was 2000 mg/L, the RRmax [13] was 3 and the Cmax [14] was 2000 mg/L. For the same compound, the RRmax [14] was 2 and the LD50 [12] was 17 mg/kg.
For `C[n+]1ccc(-c2cc[n+](C)cc2)cc1` [Paraquat], the “response of the library promoters” value [4] was “strongest inducer”, the “share … with 0 < RRmax < 2” value [4] was 71.1% and the “share … with 2 < RRmax < 3” value [4] was 13.7%. The “share … with 3 < RRmax < 5” value [4] was 7.5%, the “share … with 5 < RRmax < 10” value [4] was 3.7% and the “share of library promoters with 10 < RRmax” value [4] was 4%. For the same compound, the Cmax [8] was 500 mg/L, the RRmax [8] was 28 and the EC200 [15] was 0.43 mg/L. For the same compound, the t200 [15] was 21 min, the “tmax (first value, time to reach RRmax)” value [15] was 96/110 min and the “tmax (second value, time to reach ΔLmax)” value [15] was 96/110 min. For the same compound, the ΔLmax [15] was 146,342 RLU, the Cmax [1] was 32.5 mg/L and the EC200 [1] was 9.0 mg/L. The RRmax [1] was 13.0, the t200 [1] was 85 min and the “tmax (first value, time to reach RRmax)” value [1] was 123/132 min. The “tmax (second value, time to reach ΔLmax)” value [1] was 123/132 min, the ΔLmax [1] was 253,421 RLU and the Cmax [2] was 250 mg/L. It also gave an EC200 [2] of 9.8 mg/L, an RRmax [2] of 16.9 and a t200 [2] of 42 min. For the same compound, the “tmax (first value, time to reach RRmax)” value [2] was 120/60 min, the “tmax (second value, time to reach ΔLmax)” value [2] was 120/60 min and the ΔLmax [2] was 29,591 RLU. For the same compound, the LD50 [12] was 150 mg/kg.
In the case of `COC(=O)C=C(C)OP(=O)(OC)OC` [Phosdrin], the Cmax [1] is reported as 180 mg/L, the EC200 [1] is reported as 38.3 mg/L and the RRmax [1] is reported as 3.7. For the same compound, the t200 [1] was 110 min, the “tmax (first value, time to reach RRmax)” value [1] was 120/120 min and the “tmax (second value, time to reach ΔLmax)” value [1] was 120/120 min. For the same compound, the ΔLmax [1] was 12,900 RLU.
For Botulinum Toxin A, the “response of the library promoters” value [4] was “did not produce any response” and the “share … with 0 < RRmax < 2” value [4] was 100%.
